Molecular target: T1, BTK protein (Homo sapiens, UniProt Q06187)
T1 construct: endogenous in cells; host or cells: TMD-8 cells
Assay: Measurement of BTK protein degradation ability in TMD-8 cells (Western blotting)
Type: cell-based
Settings: harvested after 24 hours; for BTK degradation (%) 1 nM: compound 1 nM; for BTK degradation (%) 10 nM: compound 10 nM; for BTK degradation (%) 100 nM: compound 100 nM
Method in brief: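 BTK levels were measured by immunoblotting of equal-protein RIPA lysates, normalized to GAPDH or β-actin, with chemiluminescent or infrared detection. Lysates came from TMD-8 cells exposed to compound for 24 h at final concentrations of 0.1, 1, 10 μM or 0.0001–0.1 μM, against a DMSO control.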

T1 sequence (Q06187 whole entry): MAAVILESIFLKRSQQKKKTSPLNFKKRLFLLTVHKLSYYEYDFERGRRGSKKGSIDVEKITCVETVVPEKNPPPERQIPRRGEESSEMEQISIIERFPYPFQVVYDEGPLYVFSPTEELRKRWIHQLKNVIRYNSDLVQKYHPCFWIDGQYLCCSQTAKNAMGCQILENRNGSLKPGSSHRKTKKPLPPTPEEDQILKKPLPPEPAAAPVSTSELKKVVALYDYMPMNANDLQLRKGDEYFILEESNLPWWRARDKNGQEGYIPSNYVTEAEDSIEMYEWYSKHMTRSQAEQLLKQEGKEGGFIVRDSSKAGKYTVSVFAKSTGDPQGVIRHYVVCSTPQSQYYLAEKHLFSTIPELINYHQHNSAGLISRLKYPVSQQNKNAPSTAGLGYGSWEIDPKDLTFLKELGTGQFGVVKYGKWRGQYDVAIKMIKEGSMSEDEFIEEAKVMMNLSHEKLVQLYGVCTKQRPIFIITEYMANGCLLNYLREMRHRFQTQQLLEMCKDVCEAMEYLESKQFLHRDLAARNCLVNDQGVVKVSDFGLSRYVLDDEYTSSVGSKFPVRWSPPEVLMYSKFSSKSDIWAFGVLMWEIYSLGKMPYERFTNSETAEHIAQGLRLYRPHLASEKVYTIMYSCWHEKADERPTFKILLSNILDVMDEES

SMILES	BTK degradation (%) 1 nM [%]	BTK degradation (%) 10 nM [%]	BTK degradation (%) 100 nM [%]
Cc1cc(-c2ccnc(Nc3ccc(N4CCC(CN5CCN(c6cccc(NC7CCC(=O)NC7=O)c6)CC5)CC4)cc3)n2)ccc1CNC(=O)N1CC(OC(C)C)C1 (stereo not drawn) [Example 120, N-(4-(2-((4-(4-((4-(3-((2,6-dioxopiperidin-3-yl)amino)phenyl)piperazin-1-yl)methyl)piperidin-1-yl)phenyl)amino)pyrimidin-4-yl)-2-methylbenzyl)-3-isopropoxyazetidine-1-carboxamide]	18.5	91.5	99.5
Cc1cc(-c2ccnc(Nc3ccc(N4CCC(CN5CCN(c6ccc(NC7CCC(=O)NC7=O)cc6)CC5)CC4)cc3)n2)ccc1CNC(=O)N1CC(OC(C)C)C1 (stereo not drawn) [Example 121, N-(4-(2-((4-(4-((4-(4-((2,6-dioxopiperidin-3-yl)amino)phenyl)piperazin-1-yl)methyl)piperidin-1-yl)phenyl)amino)pyrimidin-4-yl)-2-methylbenzyl)-3-isopropoxyazetidine-1-carboxamide]	43.0	97.0	100.0
Cc1cc(-c2ccnc(Nc3ccc(N4CCC(CN5CCC(c6cccc(NC7CCC(=O)NC7=O)c6)CC5)CC4)cc3)n2)ccc1CNC(=O)N1CC(OC(C)C)C1 (stereo not drawn) [Example 122, N-(4-(2-((4-(4-((4-(3-((2,6-dioxopiperidin-3-yl)amino)phenyl)piperidin-1-yl)methyl)piperidin-1-yl)phenyl)amino)pyrimidin-4-yl)-2-methylbenzyl)-3-isopropoxyazetidine-1-carboxamide]	−9.0	63.0	98.5
Cc1cc(-c2ccnc(Nc3ccc(N4CCC(CN5CCC(c6ccc(OC7CCC(=O)NC7=O)cn6)CC5)CC4)cc3)n2)ccc1CNC(=O)N1CC(OC(C)C)C1 (stereo not drawn) [Example 124, N-(4-(2-((4-(4-((4-(5-((2,6-dioxopiperidin-3-yl)oxy)pyridin-2-yl)piperidin-1-yl)methyl)piperidin-1-yl)phenyl)amino)pyrimidin-4-yl)-2-methylbenzyl)-3-isopropoxyazetidine-1-carboxamide]	−1.3	63.7	97.7
Cc1cc(-c2ccnc(Nc3ccc(N4CCC(CN5CCC(c6ccc(NC7CCC(=O)NC7=O)cn6)CC5)CC4)cc3)n2)ccc1CNC(=O)N1CC(OC(C)C)C1 (stereo not drawn) [Example 126, N-(4-(2-((4-(4-((4-(5-((2,6-dioxopiperidin-3-yl)amino)pyridin-2-yl)piperidin-1-yl)methyl)piperidin-1-yl)phenyl)amino)pyrimidin-4-yl)-2-methylbenzyl)-3-isopropoxyazetidine-1-carboxamide]	39.7	95.7	100.0
Cc1cc(-c2ccnc(Nc3ccc(N4CCC(CN5CCN(c6ccc(NC7CCC(=O)NC7=O)cn6)CC5)CC4)cc3)n2)ccc1CNC(=O)N1CC(OC(C)C)C1 (stereo not drawn) [Example 127, N-(4-(2-((4-(4-((4-(5-((2,6-dioxopiperidin-3-yl)amino)pyridin-2-yl)piperazin-1-yl)methyl)piperidin-1-yl)phenyl)amino)pyrimidin-4-yl)-2-methylbenzyl)-3-isopropoxyazetidine-1-carboxamide]	43.3	94.0	99.3
Cc1cc(-c2ccnc(Nc3ccc(N4CCC(CN5CCC(c6ccc(NC7CCC(=O)NC7=O)cn6)CC5)CC4)cc3)n2)ccc1CNC(=O)c1cnn(C(C)C)c1 (stereo not drawn) [Example 128, N-(4-(2-((4-(4-((4-(5-((2,6-dioxopiperidin-3-yl)amino)pyridin-2-yl)piperidin-1-yl)methyl)piperidin-1-yl)phenyl)amino)pyrimidin-4-yl)-2-methylbenzyl)-1-isopropyl-1H-pyrazole-4-carboxamide]	51.5	94.5	99.0
Cc1cc(-c2ccnc(Nc3ccc(N4CCC(CN5CCN(c6ccc(NC7CCC(=O)NC7=O)cn6)CC5)CC4)cc3)n2)ccc1CNC(=O)c1cnn(C(C)C)c1 (stereo not drawn) [Example 129, N-(4-(2-((4-(4-((4-(5-((2,6-dioxopiperidin-3-yl)amino)pyridin-2-yl)piperazin-1-yl)methyl)piperidin-1-yl)phenyl)amino)pyrimidin-4-yl)-2-methylbenzyl)-1-isopropyl-1H-pyrazole-4-carboxamide]	49.0	95.5	100.0
Cc1cc(-c2ccnc(Nc3ccc(N4CCC(CN5CCC(c6ccc(NC7CCC(=O)NC7=O)cn6)CC5)CC4)cc3)n2)ccc1CNC(=O)c1cnn(C(C)(C)C)c1 (stereo not drawn) [Example 130, 1-(tert-butyl)-N-(4-(2-((4-(4-((4-(5-((2,6-dioxopiperidin-3-yl)amino)pyridin-2-yl)piperidin-1-yl)methyl)piperidin-1-yl)phenyl)amino)pyrimidin-4-yl)-2-methylbenzyl)-1H-pyrazole-4-carboxamide]	56.5	95.0	99.5
Cc1cc(-c2ccnc(Nc3ccc(N4CCC(CN5CCC(c6ccc(NC7CCC(=O)NC7=O)cn6)CC5)CC4)cc3)n2)ccc1CNC(=O)c1cn(C(C)(C)C)nn1 (stereo not drawn) [Example 132, 1-(tert-butyl)-N-(4-(2-((4-(4-((4-(5-((2,6-dioxopiperidin-3-yl)amino)pyridin-2-yl)piperidin-1-yl)methyl)piperidin-1-yl)phenyl)amino)pyrimidin-4-yl)-2-methylbenzyl)-1H-1,2,3-triazole-4-carboxamide]	54.5	95.5	100.0

Second part, the compound after the results:

BTK degradation (%) 1 nM [%]	BTK degradation (%) 10 nM [%]	BTK degradation (%) 100 nM [%]	SMILES
41.5	91.0	99.5	Cc1cc(-c2ccnc(Nc3ccc(N4CCC(CN5CCC(c6ccc(OC7CCC(=O)NC7=O)cc6)CC5)CC4)cc3)n2)ccc1CNC(=O)N1CC(OC(C)C)C1 (stereo not drawn) [Example 119, N-(4-(2-((4-(4-((4-(4-((2,6-dioxopiperidin-3-yl)oxy)phenyl)piperidin-1-yl)methyl)piperidin-1-yl)phenyl)amino)pyrimidin-4-yl)-2-methylbenzyl)-3-isopropoxyazetidine-1-carboxamide]
17.5	92.5	100.0	Cc1cc(-c2ccnc(Nc3ccc(N4CCC(CN5CCC(c6ccc(NC7CCC(=O)NC7=O)cc6)CC5)CC4)cc3)n2)ccc1CNC(=O)N1CC(OC(C)C)C1 (stereo not drawn) [Example 123, N-(4-(2-((4-(4-((4-(4-((2,6-dioxopiperidin-3-yl)amino)phenyl)piperidin-1-yl)methyl)piperidin-1-yl)phenyl)amino)pyrimidin-4-yl)-2-methylbenzyl)-3-isopropoxyazetidine-1-carboxamide]
14.7	85.0	99.3	Cc1cc(-c2ccnc(Nc3ccc(N4CCC(CN5CCN(c6ccc(OC7CCC(=O)NC7=O)cn6)CC5)CC4)cc3)n2)ccc1CNC(=O)N1CC(OC(C)C)C1 (stereo not drawn) [Example 125, N-(4-(2-((4-(4-((4-(5-((2,6-dioxopiperidin-3-yl)oxy)pyridin-2-yl)piperazin-1-yl)methyl)piperidin-1-yl)phenyl)amino)pyrimidin-4-yl)-2-methylbenzyl)-3-isopropoxyazetidine-1-carboxamide]
59.5	96.0	100.0	Cc1cc(-c2ccnc(Nc3ccc(N4CCC(CN5CCN(c6ccc(NC7CCC(=O)NC7=O)cn6)CC5)CC4)cc3)n2)ccc1CNC(=O)c1cnn(C(C)(C)C)c1 (stereo not drawn) [Example 131, 1-(tert-butyl)-N-(4-(2-((4-(4-((4-(5-((2,6-dioxopiperidin-3-yl)amino)pyridin-2-yl)piperazin-1-yl)methyl)piperidin-1-yl)phenyl)amino)pyrimidin-4-yl)-2-methylbenzyl)-1H-pyrazole-4-carboxamide]
60.5	96.5	100.0	Cc1cc(-c2ccnc(Nc3ccc(N4CCC(CN5CCN(c6ccc(NC7CCC(=O)NC7=O)cn6)CC5)CC4)cc3)n2)ccc1CNC(=O)c1cn(C(C)(C)C)nn1 (stereo not drawn) [Example 133, 1-(tert-butyl)-N-(4-(2-((4-(4-((4-(5-((2,6-dioxopiperidin-3-yl)amino)pyridin-2-yl)piperazin-1-yl)methyl)piperidin-1-yl)phenyl)amino)pyrimidin-4-yl)-2-methylbenzyl)-1H-1,2,3-triazole-4-carboxamide]
58.5	93.5	98.5	Cc1cc(-c2ccnc(Nc3ccc(N4CCC(CN5CCC(c6ccc(NC7CCC(=O)NC7=O)cc6)CC5)CC4)cc3)n2)ccc1CNC(=O)c1cnn(C(C)C)c1 (stereo not drawn) [Example 134, N-(4-(2-((4-(4-((4-(4-((2,6-dioxopiperidin-3-yl)amino)phenyl)piperidin-1-yl)methyl)piperidin-1-yl)phenyl)amino)pyrimidin-4-yl)-2-methylbenzyl)-1-isopropyl-1H-pyrazole-4-carboxamide]

Source: patent US20250041429A1, “COMPOUND HAVING BTK PROTEIN DEGRADATION ACTIVITY, AND MEDICAL USES THEREOF” (UBIX THERAPEUTICS, INC., priority 2021, published 2025)
